Experimental findings from patent US20250262199A1, “TREATMENT OF AUTOIMMUNE SKIN DISEASE” (ASLAN PHARMACEUTICALS PTE LTD, priority 2022, published 2025) are described below.

What all share (assay type): in vivo
The subject of one experiment is PMEL T cells. As to the kind of experiment: Flow cytometry of PMEL T cell counts in tissues of vitiligo mouse model. For orientation: Flow cytometry measures light scatter and fluorescence of single cells or particles in a stream.
Experiment [1] concerns vitiligo mouse model (transgenic Krt14-KitL* (SCF) mice). As to the kind of experiment: Vitiligo scoring in vitiligo mouse model. The note with it: oral gavage, 6 weeks (30 treatment days), FIG. 1.
For experiment [2], the system named is Alopecia areata mouse model (C3H/HeJ mice). In words: Hair coverage in Alopecia areata mouse model (C3H/HeJ skin graft). Conditions: 150 or 300 mg/kg/day once daily oral gavage, week 8 time point (10 weeks after engraftment), vs vehicle; interim data; FIG. 3. The method, then: The C3H/HeJ mouse strain is known to spontaneously develop alopecia (AA) at a low frequency over a prolonged time frame. Transplantation of AA-affected skin from a C3H/HeJ mouse to unaffected C3H/HeJ recipients will induce the development of AA in nearly 100% of recipients over 4-8 weeks. Accordingly, to produce the AA mouse model, AA-affected C3H/HeJ skin was grafted onto groups of unaffected C3H/HeJ mice. The following treatment groups (n=10 per treatment group) were tested: • 1. Vehicle 0.5% methylcellulose (negative control) • 2. 150 mg/kg/day farudostat • 3. 300 mg/kg/day farudostat Treatments were administered once daily by oral gavage starting 2 weeks after engraftment and concluded after 12 weeks (84 days) of treatment. Photographs were taken at baseline, and every 4 weeks until the end of study Ventral hair growth was scored based on the photographs. Any mouse that had >98% hair coverage was classified as ‘no hair loss’.

For `COc1cccc(-c2cc(F)c(Nc3ncccc3C(=O)O)c(F)c2)c1` [farudostat, 2-(3,5-difluoro-3′-methoxybiphenyl-4-ylamino) nicotinic acid], the “mean PMEL count, 150 mg/kg/day compared to 75 mg/kg/day” value in the experiment with PMEL T cells (150 mg/kg/day, oral gavage, FIGS. 2A to 2D) is given as “greater reduction in mean PMEL count compared to 75 mg/kg/day”. The “mean PMEL T cell count, dermis” value in the experiment with PMEL T cells (farudostat 75 and 150 mg/kg/day, oral gavage, end of experiment, FIG. 2B) was “reduction in mean Pmel T cell count”. In addition, in the experiment on PMEL T cells (farudostat 75 and 150 mg/kg/day, oral gavage, end of experiment, FIG. 2C), the “mean PMEL T cell count, epidermis” value is “reduction in mean Pmel T cell count”. Also, the “mean PMEL count, spleen” value in the experiment on PMEL T cells (spleen, compared with anti-IFNγ positive control, FIG. 2D) is given as “reduction in mean PMEL count in the spleen that was even greater than that observed for anti-IFNγ”. Besides, the “final mean vitiligo score” value is recorded as “improvement in vitiligo score” in experiment [1] (75 mg/kg/day, vs vehicle); “greater improvement in vitiligo score compared to the 75 mg/kg/day group” in experiment [1] (150 mg/kg/day, vs vehicle and 75 mg/kg/day group). Further, in experiment [2], the “mean % hair coverage” value is recorded as “slight improvement in % hair coverage”.
